This passage reports IC50 results from patent EP4711356A1, “TETRAHYDROCARBAZOLE DERIVATIVE, PHARMACEUTICAL COMPOSITION, AND USE THEREOF” (Nain Biotech (Hangzhou) Co., Ltd., priority 2023, dated 2024).

Molecules are shown by their SMILES.

This assay relates to HeLa cells. Briefly: Cell-based pharmacodynamic assay (CellTiter-Glo proliferation inhibition), HeLa. The conditions noted are these: human cervical cancer HeLa cells; 72 hours incubation; CellTiter-Glo luminescence; read-out: IC50 against HeLa cells. How it is done: Complete media such as RPMI 1640 (Gibco, A1049101), EMEM (ATCC, 30-2003), DMEM (Gibco, C11995500CP), McCoy's 5A (Gibco, 16600082), and F-12K (ATCC, 30-2004) were prepared by supplementing with varying concentrations of FBS (Biological Industries, 04-002-1A) and 1% Penicillin-Streptomycin (Gibco, 15140122) and was thoroughly mixed. Tumor cell lines including HeLa (ATCC, CCL-2; EMEM + 10% FBS), TOV-21G (Cobioer, CBP60292; 1:1 mixture of MCDB 105 and Medium 199 + 15% FBS), OVCAR-3 (ATCC, HTB-161; RPMI 1640 + 20% FBS + 0.01 mg/ml bovine insulin), SK-OV-3 (ATCC, HTB-77; McCoy's 5A + 10% FBS), A2780 (Cobioer, CBP60283; RPMI 1640 + 10% FBS), OC316 (Cobioer, CBP60620; RPMI 1640 + 10% FBS), HuH-7 (Cobioer, CBP60202; DMEM + 10% FBS), SNU-398 (ATCC, CRL-2233; RPMI 1640 + 10% FBS), NCI-H2286 (ATCC, CRL-5938; RPMI 1640 + 5% FBS), NCI-H82 (ATCC, HTB-175; RPMI 1640 + 10% FBS), A549 (ATCC, CCL-185; F-12K + 10% FBS), SK-MEL-3 (ATCC, HTB-69; McCoy's 5A + 15% FBS), PSN-1 (Cobioer, CBP61215; RPMI 1640 + 10% FBS), LoVo (ATCC, CCL-229; F-12K + 10% FBS), DLD-1 (ATCC, CCL-221; RPMI 1640 + 10% FBS), HCT-15 (ATCC, CCL-225; RPMI 1640 + 10% FBS), A498 (ATCC, HTB-44; EMEM + 10% FBS), LNCaP (ATCC, CRL-1740; RPMI 1640 + 10% FBS), SNU-1 (ATCC, CRL-5971; RPMI 1640 + 10% FBS), SCC-9 (Cobioer, CBP60428; DMEM/F12 (1:1) + 10% FBS + 0.5 mM sodium pyruvate + 400 ng/ml hydrocortisone), SU-DHL-5 (ATCC, CRL-2958; RPMI 1640 + 10% FBS), Toledo (ATCC, CRL-2631; RPMI 1640 + 10% FBS), and SJCRH30 (ATCC, CRL-2061; RPMI 1640 + 10% FBS) were thawed. Cells were passaged approximately twice, and those in good growth condition (typically passages 4-6) were selected for experiments. The medium was aspirated, and the cells were washed once with 0.25% trypsin (Invitrogen, 25200-072). The waste liquid was discarded, and 3 mL of fresh trypsin was added to the culture flask for digestion. When the cells began to detach, 9 mL of complete medium was added to neutralize the trypsin digestion, and the mixture was gently mixed. The cell suspension was transferred to a centrifuge tube using a pipette and centrifuged at 1000 rpm for 5 minutes. The supernatant was discarded, and 5 mL of medium was added to the centrifuge tube to gently resuspend the cells evenly. The cell concentration was adjusted to 1×10^4/mL-3×10^4/mL using a cell counter (Beckman Coulter, Vi-cellTM XR). The cell suspension was added to a 96-well plate (Corning, 3903) at 100 µL/well. The plate was labeled with details such as cell name, seeding density, and date, and then placed in a CO2 incubator (Thermo, Thermo 3111) overnight. Test compounds were prepared as 20 mM stock solutions in DMSO (Sigma, D4540-1L) and added to the corresponding cell wells using an HPD300 automated dispenser according to the designed layout. The plates were incubated in a 37°C, 5% CO2 incubator for 72 hours. CellTiter-Glo Buffer was thawed at room temperature. The lyophilized CellTiter-Glo substrate was equilibrated to room temperature. The CellTiter-Glo Buffer was added to the CellTiter-Glo substrate and thoroughly mixed. The cell plates were removed and equilibrated to room temperature, and 50 µL of the mixed CellTiter-Glo reagent was added to each well. The plates were protected from light and shaken for 10 minutes, followed by incubation for 10 minutes. The plates were placed in an Enspire reader (luminescence measurement time: 0.5 s) to record luminescence results. The inhibition rate was calculated using the following formula: Inhibition rate (%) = (1 - (RLU_compound - RLU_blank) / (RLU_DMSO - RLU_blank)) × 100%. Dose-response curves were plotted using XLFit to calculate IC50 values. A four-parameter model was used: [fit = (A + ((B - A) / (1 + ((C/x) ^ D)))]. The test results for HeLa cells are shown in Table 1. Table 1: IC50 values of some test compounds against human cervical cancer HeLa cells

In general, IC50 refers to the midpoint of a concentration-inhibition curve. Regarding `Cc1nn(C)cc1-c1cccc2[nH]c3c(c12)CCCC3=O` [Compound B180], the half-maximal inhibitory concentration (IC50) was ≤ 500 nM.

In the case of `O=C1CCCc2c1[nH]c1cccc(-c3cnn(CCO)c3)c21` [Compound B181], the IC50 was ≤ 200 nM.

In the case of `O=C1CCCc2c1[nH]c1cccc(C(=O)OC3COCC3O)c21` (stereo not drawn) [Compound B186], the IC50 is ≤ 500 nM.

`O=C1CCCc2c1[nH]c1cccc(C(=O)O[C@@H](CO)c3ccccc3)c21` [Compound B189]: the half-maximal inhibitory concentration (IC50) is ≤ 500 nM.

Turning to `[2H]C([2H])([2H])n1cc(-c2cccc3[nH]c4c(c23)CCCC4=O)cn1` [Compound B191], the IC50 was ≤ 200 nM.

As to `O=C1CCCc2c1[nH]c1cccc(N3CC[C@@H](CO)C3)c21` [Compound B193], the IC50 is ≤ 200 nM.

Regarding `O=C1CCCc2c1[nH]c1cccc(N3CCO[C@H](CO)C3)c21` [Compound B194], the IC50 was ≤ 200 nM.

`O=C1CCCc2c1[nH]c1cccc(N3CC[C@H](CO)C3)c21` [Compound B196]: the half-inhibitory concentration (IC50) is ≤ 200 nM.

`COC(=O)c1cccc2c1c1c(n2C(C)=O)C(=O)CCC1` [Compound C01]: the IC50 was ≤ 200 nM.

Take `C=CC(=O)n1c2c(c3c(C(=O)OCC)cccc31)CCCC2=O` [Compound C03]: the IC50 is ≤ 200 nM.

`CCOC(=O)c1cccc2c1c1c(n2C(=O)c2ccccc2)C(=O)CCC1` [Compound C04]: the IC50 is ≤ 200 nM.

`CCOCC(=O)n1c2c(c3c(C(=O)OCC)cccc31)CCCC2=O` [Compound C14]: the IC50 is ≤ 200 nM.

For the molecule `CCOC(=O)c1cccc2c1c1c(n2C(=O)/C=C/C(=O)OC)C(=O)CCC1` [Compound C15], the IC50 is ≤ 200 nM.

As to `CCCCCOC(=O)n1c2c(c3c(C(=O)OCC)cccc31)CCCC2=O` [Compound C16], the IC50 is ≤ 200 nM.

On to `CCOC(=O)c1cccc2c1c1c(n2C(=O)C2CCOCC2)C(=O)CCC1` [Compound C17], for which the IC50 is ≤ 200 nM.

With `CCOC(=O)c1cccc2c1c1c(n2C(=O)OC2CCN(C)CC2)C(=O)CCC1` [Compound C18], the IC50 is ≤ 200 nM.

In the case of `CCOC(=O)c1cccc2c1c1c(n2C(=O)c2ccc(F)cc2)C(=O)CCC1` [Compound C19], the IC50 is ≤ 200 nM.

As for `CCOC(=O)c1cccc2c1c1c(n2C(=O)c2ccc(Cl)cc2)C(=O)CCC1` [Compound C20], the IC50 was ≤ 200 nM.

In the case of `CCOC(=O)c1cccc2c1c1c(n2C(=O)c2ccc(OC)cc2)C(=O)CCC1` [Compound C21], the IC50 was ≤ 200 nM.

Turning to `C#Cc1cccc(C(=O)n2c3c(c4c(C(=O)OCC)cccc42)CCCC3=O)c1` [Compound C22], the half-inhibitory concentration (IC50) was ≤ 200 nM.

For the molecule `CCOC(=O)c1cccc2c1c1c(n2C(=O)c2ccc(C)cc2)C(=O)CCC1` [Compound C23], the IC50 was ≤ 200 nM.

Turning to `CCOC(=O)c1cccc2c1c1c(n2C(=O)C2CCN(C)CC2)C(=O)CCC1` [Compound C24], the concentration for half-maximal inhibition (IC50) is ≤ 200 nM.

For the molecule `CCOC(=O)c1cccc2c1c1c(n2C(=O)c2ccccc2OC)C(=O)CCC1` [Compound C25], the IC50 is ≤ 200 nM.

With `CCOC(=O)c1cccc2c1c1c(n2C(=O)c2ncoc2C)C(=O)CCC1` [Compound C26], the IC50 was ≤ 200 nM.

Turning to `CCOC(=O)c1cccc2c1c1c(n2C(=O)c2ccc(C)cn2)C(=O)CCC1` [Compound C27], the IC50 is ≤ 200 nM.

`CCOC(=O)c1cccc2c1c1c(n2C(=O)/C=C/c2ccc(O)c(OC)c2)C(=O)CCC1` [Compound C29]: the IC50 was ≤ 200 nM.

For `CCOC(=O)c1cccc2c1c1c(n2C(=O)C2OC2C)C(=O)CCC1` (stereo not drawn) [Compound C30], the IC50 is ≤ 200 nM.

As for `CCOC(=O)c1cccc2c1c1c(n2C(=O)c2ccccc2O)C(=O)CCC1` [Compound C31], the IC50 was ≤ 200 nM.

Consider `CCOC(=O)c1cccc2c1c1c(n2C(=O)c2cc(C)cc(OCC)n2)C(=O)CCC1` [Compound C32], for which the IC50 is ≤ 200 nM.

For the molecule `CCOC(=O)c1cccc2c1c1c(n2C(=O)CN2CCN(C)CC2)C(=O)CCC1` [Compound C34], the IC50 is ≤ 200 nM.

Consider `CCOC(=O)c1cccc2c1c1c(n2C(=O)CC2CCOCC2)C(=O)CCC1` [Compound C35], for which the IC50 was ≤ 200 nM.

Take `CCOC(=O)c1cccc2c1c1c(n2C(=O)C2(c3ccc4c(c3)OC(F)(F)O4)CC2)C(=O)CCC1` [Compound C36]: the IC50 is ≤ 200 nM.

As for `CCOC(=O)c1cccc2c1c1c(n2C(=O)C2COC2)C(=O)CCC1` [Compound C38], the IC50 was ≤ 200 nM.

Turning to `CCOC(=O)c1cccc2c1c1c(n2C(=O)CCCCCN)C(=O)CCC1` [Compound C42], the IC50 was ≤ 200 nM.

Regarding `CCOC(=O)c1cccc2c1c1c(n2C(=O)C#CC2(C)COC2)C(=O)CCC1` [Compound C43], the IC50 was ≤ 200 nM.

As to `CCOCCOCC(=O)n1c2c(c3c(C(=O)OCC)cccc31)CCCC2=O` [Compound C44], the IC50 is ≤ 200 nM.

For the molecule `CCOC(=O)c1cccc2c1c1c(n2C(=O)C2(C)CCOCC2)C(=O)CCC1` [Compound C45], the IC50 is ≤ 200 nM.

For the molecule `CCOC(=O)c1cccc2c1c1c(n2C(=O)C2(F)CCOCC2)C(=O)CCC1` [Compound C49], the half-maximal inhibitory concentration (IC50) is ≤ 200 nM.

On to `CCOC(=O)c1cccc2c1c1c(n2C(=O)CCCN(C)C)C(=O)CCC1` [Compound C50], for which the IC50 was ≤ 200 nM.

Take `CCOC(=O)c1cccc2c1c1c(n2C(=O)CCCCC(F)F)C(=O)CCC1` [Compound C51]: the IC50 is ≤ 200 nM.

Take `CCCCCC(=O)n1c2c(c3c(-c4cnn(C(C)C)c4)cccc31)CCCC2=O` [Compound C52]: the half-inhibitory concentration (IC50) is ≤ 200 nM.

Take `CCOC(=O)c1cccc2c1c1c(n2C(=O)CCCCCO)C(=O)CCC1` [Compound C55]: the IC50 is ≤ 200 nM.

Turning to `CCOC(=O)c1cccc2c1c1c(n2C(=O)C2CC3(CC(C(=O)O)C3)C2)C(=O)CCC1` (stereo not drawn) [Compound C56], the half-maximal inhibitory concentration (IC50) is ≤ 200 nM.

On to `CCOC(=O)c1cccc2c1c1c(n2C(=O)c2c[nH]cc2C(F)(F)F)C(=O)CCC1` [Compound C57], for which the half-inhibitory concentration (IC50) was ≤ 500 nM.

Take `CCOC(=O)c1cccc2c1c1c(n2C(=O)[C@@H](C)OCc2ccccc2)C(=O)CCC1` [Compound C58]: the 50% inhibitory concentration (IC50) was ≤ 200 nM.

Regarding `CCOC(=O)c1cccc2c1c1c(n2C(=O)/C=C/c2ccc(OC)c(OC)c2)C(=O)CCC1` [Compound C59], the IC50 was ≤ 200 nM.

Turning to `Cn1cc(-c2cccc3c2c2c(n3C(=O)C3CC(F)(F)C3)C(=O)CCC2)cn1` [Compound C60], the IC50 was ≤ 200 nM.

As for `Cc1ccc2[nH]c3c(c2c1)CCCC3=NCC(C)(C)O` [Compound E03], the IC50 is ≤ 500 nM.

Regarding `Cc1ccc2[nH]c3c(c2c1)CCCC3=N[C@@H]1CCNC1` [Compound E04R], the IC50 is ≤ 200 nM.

In the case of `Cc1ccc2[nH]c3c(c2c1)CCCC3=N[C@@H]1CCN(C)C1` [Compound E05R], the half-inhibitory concentration (IC50) was ≤ 200 nM.

With `Cc1ccc2[nH]c3c(c2c1)CCCC3=NCC1(C)NC(=O)NC1=O` (stereo not drawn) [Compound E07], the IC50 is ≤ 200 nM.
